Experimental data: article PMC4138103 (PLoS ONE, 2014)
Read-outs that look alike come from different tables or passages of the source.

Experiments:
Sprague-Dawley rats [1] = experiment: Liver p53 and DNA damage markers, Western blotting; assay type: in vivo, Rattus norvegicus; conditions: for Emax: Rattus norvegicus
Experimental: Liver p53, Mdm2 and DNA damage related markers were assessed by Western blotting analysis. Proteins of the liver homogenates were quantified using Coomassie Plus Protein Assay Reagent (Pierce, Täby, Sweden). The samples were subjected to SDS-PAGE, the separated proteins were transferred to a polyvinylidene difluoride membrane (Bio-Rad, Hercules, CA, USA) and blocked in 10% non-fatty milk for 1 h. The protein bands were subsequently probed with antibodies overnight at 4°C.
The primary antibody for total p53 DO-1 was purchased from Novocastra (Newcastle, UK). Primary antibodies for DNA-damage marker were phospho-p53 (Ser-15), phospho-Chk2 (Thr-68), phospho-Mdm2 (Ser-166), phospho-Akt (Ser-473) (Cell Signaling Technology, Stockholm, Sweden) phospho-Erk (Tyr-204) (E-4) and the loading control Cdk2 (M2) (sc-7383 resp. sc-163, Santa Cruz Biotechnology, Santa Cruz, CA, USA). Secondary antibodies used were goat anti-rabbit IgG, goat anti-mouse IgG (sc-2004 resp. sc-2005, Santa Cruz Biotechnology). No signals were obtained when primary antibodies were omitted. […]. The results were visualized by the ECL or ECL plus detection kits (Amersham GE Healthcare Bio-sciences AB, Uppsala, Sweden). Cdk2 was used as a loading control.
Data were also analyzed using the BMD method, which is based on dose-response modeling of the full data set using a nested family of exponential and Hill models. The analyses were done on data of males and females combined, using sex as a covariate. […] In that case, different Critical Effect Doses (CEDs) and CEDs at the lowest bound of the confidence interval (CED-L) were generated for each sex. If no difference between sexes is detected, a CED and CED-Ls for the combined data is generated. However, this was also done if the curve fits are close, and separate analyses for males and females were then performed manually. […]

Sprague-Dawley rats [2] = experiment: In-life observations, 28-day repeated dose oral toxicity study; assay type: in vivo, Rattus norvegicus
From the text: The experimental protocol followed the OECD 407 Guideline on Repeated dose 28-day oral toxicity study in rodents, which was enhanced for detection of endocrine, neurotoxicity, retinoid, bone and DNA damage endpoints. In order to improve the assessment of dose-response relationships the number of rats per gender per dose group was reduced to 5 and the amount of dose groups was increased to 8. To rapidly achieve the kinetic steady state, the total dose was divided into 6 daily loading doses and 3 weekly maintenance doses, which were calculated according to the formula [21]. [drawing 1] where [drawing 2] = loading dose
Loading doses were administered on days 0–5 and maintenance doses on days 10, 17 and 24 of the study. Selection of the highest dose was based on a pilot study.
Food and water consumption per cage was recorded once weekly. For determination of the stage of the estrous cycle vaginal smears were collected from female rats daily starting from day 23 of the study. This was done to ensure that the females were at the diestrous stage during necropsy.

[3] = F, CES 5%, model E4, adipose tissue concentration based
[4] = F, CES 5%, model E5, adipose tissue concentration based
[5] = F, CES 100%, model E4, adipose tissue concentration based
[6] = F, CES 100%, model E5, adipose tissue concentration based
[7] = females, CES 5%, total dose based
[8] = females, CES 100%, adipose tissue concentration based
[9] = females, CES 100%, total dose based
[10] = females, adipose tissue concentration based

## Clc1cc(Cl)c(-c2cc(Cl)c(Cl)c(Cl)c2Cl)cc1Cl [PCB 180, 2,2′,3′,4,4′,5,5′-heptachlorobiphenyl]
Sprague-Dawley rats [1]; [3]
  CED, Liver p53: 65.2 µg/g lipid
  CED-L, Liver p53: 30.0 µg/g lipid
Sprague-Dawley rats [1]; [4]
  CED, Liver p53 Ser15: 361 µg/g lipid
  CED, Liver pChk2 Thr68: 337 µg/g lipid
  CED-L, Liver p53 Ser15: 124 µg/g lipid
  CED-L, Liver pChk2 Thr68: 98.2 µg/g lipid
Sprague-Dawley rats [1]; [5]
  CED, Liver p53: 2240 µg/g lipid
  CED-L, Liver p53: 1053 µg/g lipid
Sprague-Dawley rats [1]; [6]
  CED, Liver p53 Ser15: 438 µg/g lipid
  CED, Liver pChk2 Thr68: 382 µg/g lipid
  CED-L, Liver p53 Ser15: 411 µg/g lipid
  CED-L, Liver pChk2 Thr68: 165 µg/g lipid
Sprague-Dawley rats [1]; F, model E4, controls vs high dose according to the fitted model, read-out: Maximum response, Liver p53
  Emax: 141%
Sprague-Dawley rats [1]; females, controls vs high dose, fitted model, read-out: Liver p53, Maximum response
  Emax: 142%
Sprague-Dawley rats [1]; females, controls vs high dose, fitted model, read-out: Liver p53 Ser15, Maximum response
  Emax: 181%
Sprague-Dawley rats [1]; females, controls vs high dose, fitted model, read-out: Liver pChk2 Thr68, Maximum response
  Emax: 185%
Sprague-Dawley rats [1]; F, model E5, controls vs high dose according to the fitted model, read-out: Maximum response, Liver p53 Ser15
  Emax: 181%
Sprague-Dawley rats [1]; F, model E5, controls vs high dose according to the fitted model, read-out: Maximum response, Liver pChk2 Thr68
  Emax: 185%
Sprague-Dawley rats [1]; [7]
  Liver p53, CED: 14.1 mg/kg bw
  Liver p53, CED-L: 5.89 mg/kg bw
  Liver p53 Ser15, CED: 79.2 mg/kg bw
  Liver p53 Ser15, CED-L: 19.5 mg/kg bw
  Liver pChk2 Thr68, CED: 72.9 mg/kg bw
  Liver pChk2 Thr68, CED-L: 31.5 mg/kg bw
Sprague-Dawley rats [1]; [8]
  Liver p53 Ser15, CED (100%): 438 µg/g lipid
  Liver pChk2 Thr68, CED (100%): 382 µg/g lipid
Sprague-Dawley rats [1]; [9]
  Liver p53, CED: 472 mg/kg bw
  Liver p53, CED-L: 210 mg/kg bw
  Liver p53 Ser15, CED: 101 mg/kg bw
  Liver p53 Ser15, CED-L: 93.0 mg/kg bw
  Liver pChk2 Thr68, CED: 81.1 mg/kg bw
  Liver pChk2 Thr68, CED-L: 41.8 mg/kg bw
Sprague-Dawley rats [1]; [10]
  Liver p53, CED: 2240 µg/g lipid
  Liver p53, CED-L: 30000 ng/g lipid
Sprague-Dawley rats [2]; 1700 mg/kg bw, both genders, during loading dosing, recovered completely by end of study
  Body weight development: retarded
Sprague-Dawley rats [2]; females, three highest doses, during loading dosing
  Feed consumption, maximal temporary reduction: about 20%
Sprague-Dawley rats [2]; males, two highest doses, during loading dosing
  Feed consumption, maximal temporary reduction: about 25%
Sprague-Dawley rats [2]; rat, in vivo
  Water consumption: unaffected
Sprague-Dawley rats [2]; total doses 3-1700 mg/kg bw, both genders
  Mortality: no mortality
